Results taken from ChEMBL document CHEMBL6120947, “Synthesis and Antiosteoporotic Characterization of Diselenyl Maleimides: Discovery of a Potent Agent for the Treatment of Osteoporosis by Targeting RANKL” (J Med Chem, 2024).
Calls of active or inactive are those of the source. No cut-off for these calls is given here.

Legend:
[1] = tested on: BMDM; experiment: Inhibition of osteoclastogenesis in M-CSF/RANKL-induced osteoclast differentiation in C57BL/6J mouse BMDM cells assessed as reduction in JNK phosphorylation at 1 uM measured upto 60 mins by Western blot analysis; type: functional, cell-based
[2] = tested on: BMDM; experiment: Effect in p38 level in M-CSF/RANKL-induced osteoclast differentiation in C57BL/6J mouse BMDM cells at 1 uM measured upto 60 mins by Western blot analysis; type: functional, cell-based
[3] = tested on: BMDM; experiment: Effect in JNK level in M-CSF/RANKL-induced osteoclast differentiation in C57BL/6J mouse BMDM cells at 1 uM measured upto 60 mins by Western blot analysis; type: functional, cell-based
[4] = tested on: MC3T3-E1; experiment: Effect on osteoblast mineralization in mouse MC3T3-E1 cells assessed as change in calcium nodules at 0.5 to 2 uM incubated for 7 days by ARS staining based analysis; type: functional, cell-based; settings: dose 0.5-2 µM, time 7.0 day
[5] = Toxicity in OVX-induced osteoporosis C57BL/6 mouse model assessed as animal fatality at 10 mg/kg, po administered every other day for 8 weeks; type: organism-based; settings: in vivo, 1344 h

SMILES: O=C1C([Se]c2ccccc2)=C([Se]c2ccccc2)C(=O)N1Cc1ccccc1
- inhibition [1]: Active
- Activity [2]: No effect
- Activity [3]: No effect
- Activity [4]: No effect
- Activity [5]: Non-toxic
